Measurements as given in publication PMC4938538, “Inhibition of Pig Phosphoenolpyruvate Carboxykinase Isoenzymes by 3-Mercaptopicolinic Acid and Novel Inhibitors” (PLoS ONE, 2016).
Residue numbers refer to the chain shown, from its start. Values joined by “and” are separate entries in the source; they are usually repeats but may differ in a detail not shown here. Equal values may be shown once. “Also recorded” adds a separate entry of the source. Read-outs that look alike come from different tables or passages of the source.

Key:
PEPCK-C 139Met = biological target: T1, PEPCK-C 139Met (Sus scrofa, UniProt A0A4X1UM84); assay: 3-MP inhibition kinetics (double reciprocal, secondary and Dixon plots); assay type: biochemical, pig; parameters: made in house; host or cells: Escherichia coli BL21 (DE3)
T1 sequence (A0A4X1UM84 1-622): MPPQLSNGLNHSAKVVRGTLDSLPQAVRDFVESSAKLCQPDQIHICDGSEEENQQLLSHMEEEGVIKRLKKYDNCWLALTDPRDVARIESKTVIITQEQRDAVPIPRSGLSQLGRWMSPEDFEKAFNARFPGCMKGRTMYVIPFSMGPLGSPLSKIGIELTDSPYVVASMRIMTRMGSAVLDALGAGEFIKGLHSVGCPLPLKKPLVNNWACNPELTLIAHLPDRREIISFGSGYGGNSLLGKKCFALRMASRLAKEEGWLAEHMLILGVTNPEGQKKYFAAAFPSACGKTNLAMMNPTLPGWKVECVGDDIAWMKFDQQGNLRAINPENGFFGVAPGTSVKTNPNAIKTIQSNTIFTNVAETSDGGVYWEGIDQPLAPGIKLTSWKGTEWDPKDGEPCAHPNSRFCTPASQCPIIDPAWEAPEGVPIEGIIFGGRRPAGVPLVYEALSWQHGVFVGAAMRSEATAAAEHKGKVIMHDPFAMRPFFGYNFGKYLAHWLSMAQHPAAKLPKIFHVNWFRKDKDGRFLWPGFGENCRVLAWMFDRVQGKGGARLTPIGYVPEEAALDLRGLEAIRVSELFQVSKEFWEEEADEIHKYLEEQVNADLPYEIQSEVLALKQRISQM
Protocol: (§1) PEPCK-C activity was measured in an UNICAM 500 spectrometer (UNICAM Analytical Systems, UK) with coupled spectrophotometric assays using pyruvate kinase and lactate dehydrogenase as auxiliary enzymes in PEP synthesis reaction and malate dehydrogenase in the reverse reaction.
(§2) 3-MP inhibitions assays in OAA synthesis direction were carried out as described before with the exception of the variable substrate (50–600 μM for PEP and 10–100 μM for GDP) and 3-MP concentration (10–100 μM). Assays in the direction of PEP synthesis were performed in 1 mL of a 100 mM HEPES buffer pH 7.4, containing 10 mM DTT, 0.2 mM MnCl2, 2 mM MgCl2, 1 mM GTP or 400 μM OAA, 1 mM ADP, 0.2 mM NADH, PEPCK-C and 5 units of each pyruvate kinase and lactate dehydrogenase. Reactions were initiated by addition of OAA. Variable substrates were 5–50 μM OAA or 25–500 μM GTP and 3-MP concentrations were between 10–400 μM. Rates were calculated by measuring the decreasing slope at 340 nm of absorbance after subtracting the rate of spontaneous NADH oxidation in the case of OAA synthesis or the rate of the blank which contained all the components of the mix but PEPCK-C in the case of PEP synthesis.
(§3) 3-MP inhibition assays were fitted in double reciprocal plots. To describe the mixed non-competitive inhibition, the double reciprocal equation can be written as: 1/v = Km/Vmax (1+[I]/Ki) 1/[S]+1/Vmax (1+[I]/αKi) (2)
(§4) Ki and αKi are the dissociation constants of the enzyme-inhibitor complex and the enzyme-inhibitor-substrate complex, respectively.
(§5) The equation for the Dixon plot is: 1/v = Km/Vmax[S]+1/Vmax+Km/Vmax[S]Ki (5)

PEPCK-C 139Leu = biological target: T2, PEPCK-C 139Leu (Sus scrofa, UniProt A0A4X1UM84, M139L); assay: as above; assay type: biochemical, pig
T2 construct: made in house; host or cells: Escherichia coli BL21 (DE3)
T2 sequence (A0A4X1UM84 1-622 M139L): T1 sequence (A0A4X1UM84 1-622) with M139L
Protocol: as §1, §2, §3, §4, §5

SMILES: O=C(O)c1ncccc1S [3-MP, 3-mercaptopicolinic acid]
- Pattern of inhibition (GDP) (PEPCK-C 139Met; 139Met, GDP as variable substrate): uncompetitive inhibitor
- Pattern of inhibition (GTP) (PEPCK-C 139Met; 139Met, GTP as variable substrate): uncompetitive inhibitor
- Pattern of inhibition (OAA) (PEPCK-C 139Met; 139Met, OAA as variable substrate): mixed non-competitive inhibitor; also recorded: Mixed NC
- αKi (OAA) (PEPCK-C 139Met; 139Met, OAA as variable substrate, PEP synthesis direction): 49 ± 18 µM
- Ki (PEPCK-C 139Met; 139Met, OAA as variable substrate, PEP synthesis direction, read-out: Ki (OAA)): 18 ± 4 µM
- Pattern of inhibition (PEP) (PEPCK-C 139Met; 139Met, PEP as variable substrate): mixed non-competitive inhibitor; also recorded: Mixed NC
- αKi (PEP) (PEPCK-C 139Met; 139Met, PEP as variable substrate, OAA synthesis direction): 20 ± 4 µM
- Ki (PEPCK-C 139Met; 139Met, PEP as variable substrate, OAA synthesis direction, read-out: Ki (PEP)): 16 ± 2 µM
- Ki (PEPCK-C 139Met; 139Met, with respect to GDP, Dixon plot, substrates saturating, read-out: Ki (GDP)): 45 ± 3 µM
- Ki (PEPCK-C 139Met; 139Met, with respect to GTP, Dixon plot, substrates saturating, read-out: Ki (GTP)): 273 ± 68 µM
- Ki fold lower for 139Met than 139Leu (GTP) (PEPCK-C 139Met; GTP as variable substrate): 3 fold
- Ki fold lower for 139Met than 139Leu (OAA) (PEPCK-C 139Met; OAA as variable substrate): 1.6 fold
- Pattern of inhibition (GDP) (PEPCK-C 139Leu; 139Leu, GDP as variable substrate): uncompetitive inhibitor
- Pattern of inhibition (GTP) (PEPCK-C 139Leu; 139Leu, GTP as variable substrate): uncompetitive inhibitor
- Pattern of inhibition (OAA) (PEPCK-C 139Leu; 139Leu, OAA as variable substrate): mixed non-competitive inhibitor; also recorded: Mixed NC
- αKi (OAA) (PEPCK-C 139Leu; 139Leu, OAA as variable substrate, PEP synthesis direction): 21 ± 13 ns μM
- Ki (PEPCK-C 139Leu; 139Leu, OAA as variable substrate, PEP synthesis direction, read-out: Ki (OAA)): 29 ± 1 µM
- Pattern of inhibition (PEP) (PEPCK-C 139Leu; 139Leu, PEP as variable substrate): mixed non-competitive inhibitor; also recorded: Mixed NC
- αKi (PEP) (PEPCK-C 139Leu; 139Leu, PEP as variable substrate, OAA synthesis direction): 31 ± 5 μM and 31 ± 5 ns μM
- Ki (PEPCK-C 139Leu; 139Leu, PEP as variable substrate, OAA synthesis direction, read-out: Ki (PEP)): 19 ± 4 µM
- Ki (PEPCK-C 139Leu; 139Leu, with respect to GDP, Dixon plot, substrates saturating, read-out: Ki (GDP)): 45 ± 0.8 µM
- Ki (PEPCK-C 139Leu; 139Leu, with respect to GTP, Dixon plot, substrates saturating, read-out: Ki (GTP)): 873 ± 144 µM
- Ki for 139Leu larger than for 139Met (OAA binding) (PEPCK-C 139Leu; OAA as variable substrate): 50%
